Entries after “also recorded” stand apart in the source; their conditions may differ.
Molecular target: T1, non-persulfurated 3MST (Mus musculus, UniProt Q99J99)
T1 construct: The recombinant full-length wild-type mouse 3MST; made in house; host or cells: E. coli JM109 (DE3)
T1 sequence (Q99J99 1-297): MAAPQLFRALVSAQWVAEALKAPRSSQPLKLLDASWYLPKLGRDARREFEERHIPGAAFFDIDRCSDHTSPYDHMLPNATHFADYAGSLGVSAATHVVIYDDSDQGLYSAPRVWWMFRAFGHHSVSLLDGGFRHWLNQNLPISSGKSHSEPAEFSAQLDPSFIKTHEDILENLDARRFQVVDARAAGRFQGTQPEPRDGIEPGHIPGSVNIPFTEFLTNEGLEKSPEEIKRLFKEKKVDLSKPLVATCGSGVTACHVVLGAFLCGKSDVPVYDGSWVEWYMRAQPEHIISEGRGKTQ
Experiment: ITC analysis with non-persulfurated 3MST
Assay type: binding
Conditions: 3MP-untreated 3MST
Experimental: The recombinant full-length wild-type mouse 3MST and mutant m3MST (C65S/C255S/C264S) were expressed as an N-terminal His-tagged protein ([…]-3MST) in E. coli JM109 (DE3). The pET44a(+) vector (Novagen) was used as an expression vector. Cells were grown at 37 °C in LB broth (Miller) or 2 × YT broth containing 0.1 g/L ampicillin to OD600 about 0.5, and then protein expression was induced by adding IPTG (final conc. 0.5 mM (LB), 1 mM (2 × YT)). Cells were cultured overnight at 18–20 °C with shaking and harvested at 4 °C by centrifugation at 9,000 rpm for 5 min. Harvested cells were resuspended in lysis buffer containing 0.1 M HEPES-NaOH pH 8, 0.5 M NaCl, 0% or 10% glycerol, 0.5 mM TCEP, 1 mM PMSF, and 1% EtOH, and disrupted by sonication. Cell lysis solutions were centrifuged at 20,000 rpm for 20 min. […] The proteins were further purified on HisTrap HP (GE Healthcare) by increasing the imidazole concentration in buffer containing 0.02 M HEPES pH 8, 0.15 M NaCl, 10% glycerol, and 0.05 mM TCEP until proteins were eluted. Then the His-tag was removed by GST-fusion HRV 3 C protease digestion. […]

Cc1cc(=O)[nH]c(SCC(=O)c2cccc3ccccc23)n1 [compound 3]
Binding to non-persulfurated 3MST (ITC heat release): no heat release; also recorded: do not bind

NC(=O)c1ccsc1NC(=O)CSc1nc2ccccc2c(=O)[nH]1 [compound 1]
Binding to non-persulfurated 3MST (ITC heat release): no heat release; also recorded: do not bind

Reference: paper PMC5228037, “Discovery and Mechanistic Characterization of Selective Inhibitors of H2S-producing Enzyme: 3-Mercaptopyruvate Sulfurtransferase (3MST) Targeting Active-site Cysteine Persulfide” (Scientific Reports, 2017)
